Experimental data reported in ChEMBL document CHEMBL5036314, “Structure-Guided Design of the First Noncovalent Small-Molecule Inhibitor of CRM1” (J Med Chem, 2021).
Activity calls are given as the source filed them. No cut-off for these calls is given here.

How the values were obtained:
HCT-116 = experiment: Anti-cancer activity against human HCT-116 cells assessed as cell survival at 10 uM for 72 hrs replaced with compound containing fresh culture medium every 12 hrs by Sulforhodamine B assay; format: functional, cell-based
A2780 [1] = experiment: Induction of apoptosis in human A2780 cells assessed as viable cells at 1 uM replaced with compound containing fresh culture medium every 12 hrs measured for 72 hrs by Annexin V FITC/propidium iodide staining based flow cytometric analysis (reference value: 93.97%); format: functional; conditions: read-out: Activity
PANC-1 = experiment: Anti-cancer activity against human PANC-1 cells assessed as cell survival at 10 uM for 72 hrs replaced with compound containing fresh culture medium every 12 hrs by Sulforhodamine B assay; format: functional, cell-based
MGC-803 = experiment: Anti-cancer activity against human MGC-803 cells assessed as cell survival at 10 uM for 72 hrs replaced with compound containing fresh culture medium every 12 hrs by Sulforhodamine B assay; format: functional, cell-based
Exportin-1 [2] = target: T1, Exportin-1 (Homo sapiens, UniProt O14980); experiment: Binding affinity to wild type human CRM1 transfected HeLa cells assessed as inhibition of nuclear export of cargoes at 10 uM incubated for 12 hrs by confocal microscope analysis; format: cell-based
[3] = target: Exportin-1 (Saccharomyces cerevisiae) (UniProt P30822); experiment: Inhibition of GST-NES MVM binding to yeast CRM1 at 20 uM by pull down assay
HeLa [4] = experiment: Inhibition of cellular nuclear export in human HeLa cells transfected with hCRM1-C528T/K568A dual mutant at 10 uM incubated for 72 hrs replaced with compound containing fresh culture medium every 12 hrs by Sulforhodamine B assay; format: functional, cell-based
Saccharomyces cerevisiae = experiment: Inhibition of NES binding to yeast CRM1-T539 mutant in absence of RanGTP at 20 uM by pull down assay
Exportin-1 [5] = target: T1, Exportin-1; experiment: Inhibition of MBP-NES PKI binding to human CRM1 in presence RanGTP at 20 uM by pull down assay
A2780 [6] = experiment: Induction of apoptosis in human A2780 cells assessed as viable cells at 10 uM replaced with compound containing fresh culture medium every 12 hrs measured for 72 hrs by Annexin V FITC/propidium iodide staining based flow cytometric analysis (reference value: 93.97%); format: functional; conditions: read-out: Activity
HeLa [7] = experiment: Binding affinity to human CRM1 C528S mutant transfected HeLa cells assessed as inhibition of nuclear export of cargoes at 10 uM incubated for 12 hrs by confocal microscope analysis; format: cell-based
HeLa [8] = experiment: Induction of apoptosis in human HeLa cells assessed as cell death at 1 to 10 uM treated for 12 hrs by Annexin V FITC/propidium iodide staining based flow cytometric analysis; format: functional; conditions: dose 1-10 µM
A2780 [9] = experiment: Induction of apoptosis in human A2780 cells assessed as viable cells at 5 uM replaced with compound containing fresh culture medium every 12 hrs measured for 72 hrs by Annexin V FITC/propidium iodide staining based flow cytometric analysis (reference value: 93.97%); format: functional; conditions: read-out: Activity
A2780 [10] = experiment: Induction of apoptosis in human A2780 cells assessed as early apoptotic cells at 10 uM replaced with compound containing fresh culture medium every 12 hrs measured for 72 hrs by Annexin V FITC/propidium iodide staining based flow cytometric analysis (reference value: 3.67%); format: functional
A549 [11] = experiment: Anti-cancer activity against human A549 cells assessed as cell survival at 10 uM for 72 hrs replaced with compound containing fresh culture medium every 12 hrs by Sulforhodamine B assay; format: functional, cell-based
HeLa [12] = experiment: Inhibition of cellular nuclear export of transfected cargo in human HeLa cells transfected with pmCherry-C1 plasmid at 1 to 10 uM incubated for 12 hrs by confocal microscope analysis; format: functional, cell-based; conditions: dose 1-10 µM
[13] = (§1) Inhibition of cellular nuclear export in human HeLa cells transfected with pmCherry-C1 Cargo plasmid assessed as cytoplasmic cargo level incubated for 12 hrs by confocal microscopic analysis; format: functional, cell-based
HeLa [14] = experiment: as §1; format: functional, cell-based; conditions: dose 1-10 µM
A2780 [15] = experiment: Induction of apoptosis in human A2780 cells assessed as late apoptotic cells at 1 uM replaced with compound containing fresh culture medium every 12 hrs measured for 72 hrs by Annexin V FITC/propidium iodide staining based flow cytometric analysis (reference value: 1.35%); format: functional
HeLa [16] = experiment: Anti-cancer activity against human HeLa cells transfected with hCRM1-C528T/K568A dual mutant assessed as measuring cell survival at 10 uM for 72 hrs replaced with compound containing fresh culture medium every 12 hrs by Sulforhodamine B assay; format: functional, cell-based
HeLa [17] = experiment: Cytotoxicity against human HeLa cells transfected with hCRM1-C528S-mutant assessed as cell viability measured for 72 hrs replaced with compound containing fresh culture medium every 12 hrs by Sulforhodamine B assay; format: functional, cell-based
HeLa [18] = experiment: Anti-cancer activity against human HeLa cells assessed as cell viability at 20 uM incubated for 2 hrs by EdU incorporation based assay; format: functional
A549 [19] = experiment: Anti-cancer activity against human A549 cells assessed as inhibition of DNA synthesis incubated for 2 hrs by EdU incorporation based assay; format: functional, cell-based; conditions: dose 1-10 µM
HeLa [20] = experiment: Anti-cancer activity against human HeLa cells assessed as inhibition of DNA synthesis at 1 to 10 uM incubated for 2 hrs by EdU incorporation based assay; format: functional, cell-based; conditions: dose 1-10 µM
HeLa [21] = experiment: Anti-cancer activity against human HeLa cells transfected with hCRM1-C528T/F572Y dual mutant assessed as cell survival at 10 uM for 72 hrs replaced with compound containing fresh culture medium every 12 hrs by Sulforhodamine B assay; format: functional, cell-based
HeLa [22] = experiment: Anti-cancer activity against human HeLa cells assessed as inhibition of cell viability measured for 72 hrs replaced with compound containing fresh culture medium every 12 hrs by Sulforhodamine B assay; format: functional, cell-based
HeLa [23] = experiment: Anti-cancer activity against human HeLa cells assessed as cell survival at 10 uM for 72 hrs replaced with compound containing fresh culture medium every 12 hrs by Sulforhodamine B assay; format: functional, cell-based
A2780 [24] = experiment: Induction of apoptosis in human A2780 cells assessed as early apoptotic cells at 1 uM replaced with compound containing fresh culture medium every 12 hrs measured for 72 hrs by Annexin V FITC/propidium iodide staining based flow cytometric analysis (reference value: 3.67%); format: functional
HepG2 = experiment: Anti-cancer activity against human HepG2 cells assessed as inhibition of cell viability measured for 72 hrs replaced with compound containing fresh culture medium every 12 hrs by Sulforhodamine B assay; format: functional, cell-based
A2780 [25] = experiment: Induction of apoptosis in human A2780 cells assessed as necrotic cells at 1 uM replaced with compound containing fresh culture medium every 12 hrs measured for 72 hrs by Annexin V FITC/propidium iodide staining based flow cytometric analysis (reference value: 1%); format: functional
A2780 [26] = experiment: Anti-cancer activity against human A2780 cells assessed as fold reduction in DNA synthesis rate at 10 uM incubated for 2 hrs by EdU incorporation based assay; format: functional
A549 [27] = experiment: Anti-cancer activity against human A549 cells assessed as inhibition of cell viability measured for 72 hrs replaced with compound containing fresh culture medium every 12 hrs by Sulforhodamine B assay; format: functional, cell-based
A2780 [28] = experiment: Induction of apoptosis in human A2780 cells assessed as late apoptotic cells at 10 uM replaced with compound containing fresh culture medium every 12 hrs measured for 72 hrs by Annexin V FITC/propidium iodide staining based flow cytometric analysis (reference value: 1.35%); format: functional
A2780 [29] = experiment: Anti-cancer activity against human A2780 cells assessed as cell survival at 10 uM for 72 hrs replaced with compound containing fresh culture medium every 12 hrs by Sulforhodamine B assay; format: functional, cell-based
SW48 = experiment: Anti-cancer activity against human SW48 cells assessed as cell survival at 10 uM for 72 hrs replaced with compound containing fresh culture medium every 12 hrs by Sulforhodamine B assay; format: functional, cell-based

T1 sequence (O14980 whole entry): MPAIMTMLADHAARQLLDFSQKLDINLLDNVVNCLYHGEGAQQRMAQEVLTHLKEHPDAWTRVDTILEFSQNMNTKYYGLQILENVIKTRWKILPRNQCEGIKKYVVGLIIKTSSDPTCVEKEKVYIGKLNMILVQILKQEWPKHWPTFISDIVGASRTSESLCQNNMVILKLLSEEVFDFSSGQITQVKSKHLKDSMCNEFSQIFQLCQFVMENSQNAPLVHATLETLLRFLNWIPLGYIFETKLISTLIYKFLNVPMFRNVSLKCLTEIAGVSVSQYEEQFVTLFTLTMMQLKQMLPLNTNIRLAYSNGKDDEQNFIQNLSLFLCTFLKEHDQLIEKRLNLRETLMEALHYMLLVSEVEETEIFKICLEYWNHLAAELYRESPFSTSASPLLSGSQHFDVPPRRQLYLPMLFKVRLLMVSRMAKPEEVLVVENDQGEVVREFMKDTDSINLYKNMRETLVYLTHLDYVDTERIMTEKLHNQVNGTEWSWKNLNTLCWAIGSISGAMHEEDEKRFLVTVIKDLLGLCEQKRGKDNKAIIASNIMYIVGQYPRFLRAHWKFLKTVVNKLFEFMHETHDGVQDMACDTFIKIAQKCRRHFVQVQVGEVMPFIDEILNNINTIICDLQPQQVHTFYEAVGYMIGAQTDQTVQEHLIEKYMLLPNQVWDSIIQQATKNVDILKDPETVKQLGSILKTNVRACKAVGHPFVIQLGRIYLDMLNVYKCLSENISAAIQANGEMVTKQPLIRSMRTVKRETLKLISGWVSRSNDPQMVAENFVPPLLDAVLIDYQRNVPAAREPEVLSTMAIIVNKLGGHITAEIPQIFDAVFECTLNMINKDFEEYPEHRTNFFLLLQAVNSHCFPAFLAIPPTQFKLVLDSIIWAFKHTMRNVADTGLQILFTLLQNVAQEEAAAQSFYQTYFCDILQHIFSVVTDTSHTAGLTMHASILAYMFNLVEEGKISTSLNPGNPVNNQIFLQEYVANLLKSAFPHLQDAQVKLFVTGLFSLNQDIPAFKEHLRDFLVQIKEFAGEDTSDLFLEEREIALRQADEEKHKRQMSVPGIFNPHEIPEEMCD

**Q.** What does the source list for `CC(C)CCNC/C=C/[S+]([O-])c1cc(C(F)(F)F)cc(C(F)(F)F)c1` (stereo not given)?
**A.** Activity (HCT-116): Active; viability at 1 µM (A2780 [1]): 92.8%; Activity (PANC-1): Active; Activity (MGC-803): Active; inhibition (Exportin-1 [2]): Active; inhibition [3]: Active; inhibition (HeLa [4]): inactive; inhibition (Saccharomyces cerevisiae): Active; inhibition (Exportin-1 [5]): Active; viability at 10 µM (A2780 [6]): 64.4%; inhibition (HeLa [7]): Active; Activity (HeLa [8]): Dose-Dependent Effect; viability at 5 µM (A2780 [9]): 79.2%; Activity (A2780 [10]): 24.26%; Activity (A549 [11]): Active; inhibition (HeLa [12]): Active; EC50 [13]: 3.2 µM; inhibition (HeLa [14]): Dose-Dependent Effect; Activity (A2780 [15]): 1.33%; IC50 (HeLa [16]): 2000 nM; IC50 (HeLa [17]): 5.9 µM; Activity (HeLa [18]): Active; Activity (A549 [19]): Dose-Dependent Effect; Activity (HeLa [20]): Dose-Dependent Effect; IC50 (HeLa [21]): 2600 nM; IC50 (HeLa [22]): 3.8 µM; Activity (HeLa [23]): Active; Activity (A2780 [24]): 4.71%; IC50 (HepG2): 2900 nM; Activity (A2780 [25]): 1.1%; fold change (FC) (A2780 [26]): 5; IC50 (A549 [27]): 6.8 µM; Activity (A2780 [28]): 7.14%; Activity (A2780 [29]): Active; Activity (SW48): Active
